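These data come from cells grown in 96-well plates and exposed to compound for 48 hours at five concentrations. TGI is the concentration that stops growth completely.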
Key:
Test in all cases: inhibition of tumour cell growth, NCI panel, 48 h
[1] = test system: HL-60(TB) leukemia
[2] = test system: SN12C renal
[3] = test system: SF-268 CNS
[4] = test system: 786-0 renal
[5] = test system: UO-31 renal
[6] = test system: IGROV1 ovarian
[7] = test system: PC-3 prostate
[8] = test system: NCI-H522 lung
[9] = test system: HCT-15 colon
[10] = test system: OVCAR-3 ovarian
[11] = test system: HT29 colon
[12] = test system: K-562 leukemia
[13] = test system: TK-10 renal
[14] = test system: CCRF-CEM leukemia
[15] = test system: LOX IMVI melanoma
[16] = test system: MOLT-4 leukemia
[17] = test system: SK-MEL-2 melanoma
[18] = test system: M14 melanoma
[19] = test system: CAKI-1 renal
[20] = test system: HS 578T breast

Measured: TGI

CC(=O)OCC1OC(O[C@@H]2C[C@H]3C(C)(C)[C@H](OC(C)=O)CC[C@]3(C)[C@H]3CC[C@]4(C)C(=CC[C@H]4[C@@H](C)C[C@@H](O)[C@H](O)C(C)(C)O)[C@@]32C)C(O)C(O)C1O (some centres undefined)
31.1 µM: [17]
30.8 µM: [7]
33.8 µM: [6]
28.7 µM: [10]
29.3 µM: [3]
36.5 µM: [18]
31.8 µM: [16]
31.4 µM: [9]
30.2 µM: [15]
35.1 µM: [14]
32 µM: [13]
37.7 µM: [12]
32.5 µM: [11]
31.9 µM: [5]
29.9 µM: [4]
5.07 µM: [8]
27.3 µM: [19]
31.7 µM: [2]
33.3 µM: [1]

CC1=CSC(O)(c2ccc(Cl)cc2)c2noc(=O)n21 (centres undefined)
> 100 µM: [2] | [3] | [4] | [5] | [6] | [7] | [9] | [10] | [11] | [12] | [13] | [16] | [17] | [18] | [19]

Cc1nc2nn(Cc3ccccc3)cc2c(=O)o1
> 100 µM: [1] | [2] | [3] | [4] | [5] | [6] | [9] | [10] | [11] | [12] | [13] | [14] | [15] | [16] | [17]

C[n+]1c2ccccc2c(C(=O)NC(CCCN=C(N)N)C(=O)O)c2ccccc21 (centres undefined)
> 100 µM: [2] | [3] | [4] | [5] | [6] | [7] | [9] | [10] | [11] | [12] | [13] | [15] | [16] | [17] | [20] | [18]

O=C1N(CN2CCOCC2)CN(CN2CCOCC2)C(=O)N1Cc1ccc(-c2ccc(CN3C(=O)N(CN4CCOCC4)CN(CN4CCOCC4)C3=O)cc2)cc1
29.2 µM: [19]
> 79.5 µM: [7]
69 µM: [12]
79.4 µM: [4]
59.3 µM: [3]
> 91.2 µM: [9]
30 µM: [10]
> 100 µM: [11] | [16] | [20]
21.3 µM: [18]
40.6 µM: [5] | [15]
35.4 µM: [8]
> 51.8 µM: [17]
46.4 µM: [6]
43.4 µM: [13]

c1ccc(CCCC2Sc3cccc4cccc(c34)S2)cc1
> 100 µM: [1] | [2] | [3] | [4] | [5] | [6] | [8] | [9] | [10] | [11] | [12] | [13] | [14] | [15] | [17] | [18] | [19]

Nc1ccc2ncc(Nc3ccc(F)cc3)nc2c1
> 100 µM: [1] | [2] | [3] | [4] | [5] | [8] | [9] | [10] | [11] | [12] | [13] | [14] | [15] | [16] | [18] | [19]

COc1cc(OC)cc(-n2c(N)c(-c3nc4ccccc4s3)c3ccc([N+](=O)[O-])cc3c2=O)c1
> 100 µM: [3] | [4] | [5] | [8] | [9] | [11] | [12] | [14] | [15] | [20] | [19]
38.8 µM: [13]
13 µM: [1]
82.8 µM: [2]

CN/C=C(/c1ccc(OC)cc1)C(O)c1ccc(OC)c(OC)c1 (centres undefined)
> 100 µM: [1] | [2] | [4] | [5] | [6] | [8] | [9] | [10] | [11] | [12] | [13] | [14] | [15] | [16] | [17] | [18]

O=C(CSc1nnc(Cc2ccccc2)o1)Nc1ccccc1Cl
> 100 µM: [1] | [2] | [3] | [4] | [5] | [6] | [8] | [9] | [10] | [11] | [12] | [13] | [14] | [15] | [16] | [17] | [18] | [19]

CC(NC1=NCCO1)c1cccs1 (centres undefined)
59.6 µM: [12]
35.7 µM: [18]
78.5 µM: [14]
92.8 µM: [5]
42.6 µM: [11]
69.9 µM: [3]
36.6 µM: [4]
45.4 µM: [1]
61.6 µM: [6]
> 100 µM: [2] | [9] | [13] | [16] | [20]

CC(C)(O)/C=C\P(C)(=O)c1ccccc1 (centres undefined)
> 100 µM: [2] | [3] | [4] | [6] | [7] | [8] | [9] | [10] | [11] | [12] | [13] | [15] | [17] | [20] | [18] | [19]

COC(=O)CCCC(=O)NC1=C(Nc2ccccc2)C(=O)c2ccccc2C1=O
34.2 µM: [17]
45.1 µM: [2]
76.2 µM: [14]
41.6 µM: [15]
41.1 µM: [9]
49.7 µM: [1] | [13]
38 µM: [10]
35.3 µM: [8]
29.6 µM: [18]
46.1 µM: [5]
84.4 µM: [20]
45.5 µM: [16]
30.2 µM: [6]
33.5 µM: [4]
96.3 µM: [3]
47.3 µM: [12]
44 µM: [19]

COc1cc2c(cc1O)[C@H](C)C(c1ccccc1OC)O2 (some centres undefined)
9.25 µM: [8]
70.2 µM: [5]
26.7 µM: [15]
50.5 µM: [4]
7.5 µM: [1]
69.2 µM: [19]
> 100 µM: [3] | [6] | [10] | [12] | [13] | [18]
30.6 µM: [14]
61.3 µM: [11]
12.1 µM: [9]

COc1ccc([C@@H]2CC(=O)NCCCNCCCCNCCCN2)cc1
> 100 µM: [1] | [2] | [3] | [4] | [5] | [6] | [8] | [9] | [11] | [12] | [13] | [14] | [16] | [17] | [18] | [19]

CC(C)c1cccc(C(C)C)c1NC(=O)C(=O)CC(=O)CC(c1ccccc1)c1c(O)c2ccccc2oc1=O (centres undefined)
> 100 µM: [1] | [2] | [3] | [4] | [5] | [6] | [8] | [10] | [11] | [12] | [13] | [14] | [16] | [17] | [18] | [19]

Nc1ccc(C(=O)NN2C(=O)C(Cl)C2c2cc(Br)cc(Br)c2O)cc1 (centres undefined)
> 100 µM: [1] | [4] | [6] | [8] | [9] | [11] | [13] | [14] | [16] | [17]
28.2 µM: [18]
41.6 µM: [3]
22.4 µM: [5]
33.8 µM: [15]
64 µM: [19]

O=S(Nc1ccccc1)c1ccc(-c2ccccc2)cc1 (centres undefined)
> 100 µM: [1] | [2] | [3] | [4] | [5] | [6] | [8] | [9] | [10] | [11] | [12] | [13] | [14] | [15] | [16] | [20]

Cc1ccc(/C=C/C(=O)C(C)C)cc1
67.3 µM: [14]
83.1 µM: [10]
> 100 µM: [3] | [4] | [5] | [6] | [8] | [11] | [12] | [13] | [17] | [18]
76.9 µM: [16]

Cc1cc(Cl)ccc1NC(=O)C(=O)Cc1ccc([N+](=O)[O-])c([N+](=O)[O-])c1CC(=O)C(=O)Nc1ccc(Cl)cc1C
> 100 µM: [1] | [2] | [3] | [4] | [5] | [6] | [8] | [9] | [10] | [11] | [12] | [13] | [14] | [15] | [16] | [17] | [18] | [19]

O=C1CCc2nc3ncccc3cc2C1
72.8 µM: [14]
97.7 µM: [12]
55.4 µM: [8]
> 100 µM: [2] | [3] | [4] | [5] | [6] | [7] | [9] | [10] | [13] | [16] | [17] | [18] | [19]

O=[N+]([O-])c1cc2c(cc1O)[nH]c1cccc([N+](=O)[O-])c12
> 100 µM: [1] | [2] | [3] | [4] | [5] | [8] | [9] | [10] | [11] | [12] | [13] | [14] | [15] | [16] | [17] | [18] | [19]

CCOc1ncn(-c2ccc(NC(=S)Nc3cnccn3)cc2)n1
> 10 µM: [1] | [2] | [3] | [4] | [5] | [6] | [8] | [9] | [10] | [11] | [12] | [13] | [14] | [16] | [17] | [20] | [18]

CC(C)(C)OC(=O)NNC(=O)C1Cc2ccccc2OC1=O (centres undefined)
> 100 µM: [2] | [3] | [4] | [5] | [6] | [7] | [8] | [9] | [10] | [11] | [12] | [13] | [16] | [17] | [20] | [18] | [19]

COc1cc2c(cc1OC)C(=O)Cc1ccc3c(c1CNCC2)OCO3
> 100 µM: [2] | [3] | [4] | [5] | [6] | [8] | [9] | [10] | [11] | [12] | [13] | [14] | [16] | [17] | [18] | [19]

COc1cc(C(C#N)NNC(=O)Cc2ccccc2)cc(OC)c1OC (centres undefined)
> 100 µM: [1] | [2] | [3] | [4] | [5] | [6] | [8] | [9] | [10] | [11] | [12] | [13] | [15] | [16] | [17] | [18] | [19]

CC(C)[C@H]1CO[C@@H]2O[C@H](C)CC(=O)N21
> 100 µM: [1] | [2] | [3] | [4] | [5] | [6] | [8] | [9] | [10] | [11] | [12] | [13] | [14] | [16] | [17] | [18] | [19]

COc1ccc(/C=N/NC(=O)c2ccccc2Nc2ccccc2C(=O)N/N=C/c2ccc(OC)cc2)cc1
> 100 µM: [2] | [3] | [4] | [5] | [6] | [7] | [9] | [10] | [11] | [12] | [13] | [14] | [15] | [16] | [17] | [18] | [19]

Source: PubChem BioAssay (NCI)
